The text below walks through data of publication PMC4570246 (Cancer letters, 2015).

The Kd is a measure of binding affinity in units of concentration.

For this assay, the target named is β-tubulin (Homo sapiens, UniProt P07437). In words: SPR. The class given is binding.
β-tubulin, sequence (P07437 whole entry): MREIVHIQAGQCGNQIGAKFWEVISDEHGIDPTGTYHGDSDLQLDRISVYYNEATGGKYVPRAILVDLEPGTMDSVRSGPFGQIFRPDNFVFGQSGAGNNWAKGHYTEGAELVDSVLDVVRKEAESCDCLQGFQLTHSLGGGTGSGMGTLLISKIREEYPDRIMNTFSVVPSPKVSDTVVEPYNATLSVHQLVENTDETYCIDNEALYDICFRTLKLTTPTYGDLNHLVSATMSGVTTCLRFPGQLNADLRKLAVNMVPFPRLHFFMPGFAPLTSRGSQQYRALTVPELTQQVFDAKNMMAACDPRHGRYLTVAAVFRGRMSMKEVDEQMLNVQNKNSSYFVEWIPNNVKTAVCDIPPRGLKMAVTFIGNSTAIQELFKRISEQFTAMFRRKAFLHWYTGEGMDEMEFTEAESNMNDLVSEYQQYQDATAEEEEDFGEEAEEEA

With `CC(=O)O[C@H]1C(=O)[C@@]2(C)[C@H]([C@H](OC(=O)c3ccccc3)[C@]3(O)C[C@H](OC(=O)[C@H](O)[C@@H](NC(=O)c4ccccc4)c4ccccc4)C(C)=C1C3(C)C)[C@]1(OC(C)=O)CO[C@@H]1C[C@@H]2O` [paclitaxel], the Kd came to 2260 nM. This counts as single-digit micromolar.
`O=c1c(O)c(-c2ccc(O)c(O)c2)oc2cc(O)ccc12` [fisetin] showed a Kd of 1590 nM.
